Measurements as given in patent publication US11021448B2, “1,3-dihydro-1,4-benzodiazepine-2-thiones for the treatment of CNS related diseases” (priority 2016, dated 2021).

Target: T1, hM1 (Homo sapiens, UniProt P11229)
T1 construct: expressed in transfected cells; host or cells: CHO
T1 sequence (P11229 1-460): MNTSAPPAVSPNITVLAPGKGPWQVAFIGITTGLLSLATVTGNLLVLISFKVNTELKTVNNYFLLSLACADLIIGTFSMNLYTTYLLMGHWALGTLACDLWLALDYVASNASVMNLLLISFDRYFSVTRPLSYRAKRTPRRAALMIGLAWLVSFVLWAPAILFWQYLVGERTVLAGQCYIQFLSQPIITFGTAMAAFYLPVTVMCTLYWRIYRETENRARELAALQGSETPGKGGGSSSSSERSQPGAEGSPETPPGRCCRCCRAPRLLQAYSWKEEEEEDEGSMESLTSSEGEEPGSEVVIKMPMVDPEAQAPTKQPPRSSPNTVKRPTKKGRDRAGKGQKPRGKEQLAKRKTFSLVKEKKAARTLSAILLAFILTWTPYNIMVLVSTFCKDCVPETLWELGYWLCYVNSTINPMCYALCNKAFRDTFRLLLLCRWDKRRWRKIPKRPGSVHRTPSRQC
Test: FLIPR intracellular calcium assay for modulator activity at the muscarinic M1 receptor in CHO human M1 cells
Format: cell-based
Settings: not given
Protocol: The assay study the effect of several concentrations of test compounds on basal or acetylcholine-stimulated Ca^2+ levels using FLIPR.
The cell plate and the diluted compounds (1% DMSO final concentration) are placed on the platform of the FLIPR and the door closed. A signal test to check background fluorescence and basal fluorescence signal is performed. Laser intensity is adjusted if necessary. Two minutes preincubation with the diluted test compounds is provide to determine any agonist activity on the M1 receptor by comparison to 30 nM Acetylcholine control. In order to determine any modulator activity the diluted compounds were added to cells and after two minutes preincubation, the EC20 of acetylcholine is added followed by another two minutes preincubation before the measurement of intracellular Ca^2+ with a FLIPR (Molecular Devices).

Compound | IC50 [µM] | activity at M1 receptor
CC(C)[C@@H]1N=C(c2ccccc2)c2cc(-c3ccccc3)ccc2NC1=S [Example 19, (3S)-3-isopropyl-5,7-diphenyl-1,3-dihydro-1,4-benzodiazepine-2-thione] | 1.47 | 
CC(C)C[C@@H]1N=C(c2ccccc2)c2cc(Cl)ccc2NC1=S [Example 36, (S)-7-Chloro-3-isobutyl-5-phenyl-1,3-dihydro-benzo[e][1,4]diazepine-2-thione] | 0.317 | 
CC(C)[C@@H]1N=C(c2cccc(Cl)c2)c2cc(Cl)ccc2NC1=S [Example 22, (3S)-7-chloro-5-(3-chlorophenyl)-3-isopropyl-1,3-dihydro-1,4-benzodiazepine-2-thione] | 0.172 | 
CC(C)[C@@H]1N=C(c2ccccc2F)c2ccc(Cl)cc2NC1=S [Example 23, (3S)-8-chloro-5-(2-fluorophenyl)-3-isopropyl-1,3-dihydro-1,4-benzodiazepine-2-thione] | 0.399 | 
S=C1Nc2ccc(Cl)cc2C(c2ccccc2Cl)=NC1Cc1ccccc1 (stereo not shown) [Example X1, 3-Benzyl-7-chloro-5-(2-chloro-phenyl)-1,3-dihydro-benzo[1,4]diazepine-2-thione] |  | no activity
S=C1Nc2ccc(Cl)cc2C(c2ccccc2)=N[C@H]1CC1CC1 [Example 3, (3S)-7-chloro-3-(cyclopropylmethyl)-5-phenyl-1,3-dihydro-1,4-benzodiazepine-2-thione] | 0.311 | 
Fc1ccccc1C1=N[C@@H](C(F)(F)F)C(=S)Nc2ccc(Cl)cc21 [Example 10, (3S)-7-chloro-5-(2-fluorophenyl)-3-(trifluoromethyl)-1,3-dihydro-1,4-benzodiazepine-2-thione] | 0.61 | 
CC(C)[C@@H]1N=C(c2cccnc2)c2cc(Br)ccc2NC1=S [Example 32, (3S)-7-bromo-3-isopropyl-5-(3-pyridyl)-1,3-dihydro-1,4-benzodiazepine-2-thione] | 0.275 | 
CC(C)(O)C1N=C(c2ccccc2)c2cc(Cl)ccc2NC1=S (stereo not shown) [Example 26, 7-chloro-3-(1-hydroxy-1-methyl-ethyl)-5-phenyl-1,3-dihydro-1,4-benzodiazepine-2-thione] | 1.85 | 
CC1N=C(c2ccccc2)c2ccccc2NC1=S (stereo not shown) [Example 41, 3-methyl-5-phenyl-1,3-dihydro-1,4-benzodiazepine-2-thione] | 0.552 | 
COC(C)C1N=C(c2ccccc2)c2cc(Cl)ccc2NC1=S (stereo not shown) [Example 38, 7-chloro-3-(1-methoxyethyl)-5-phenyl-1,3-dihydro-1,4-benzodiazepine-2-thione] | 0.354 | 
CC(C)[C@H]1N=C(c2ccccc2)c2cc(Cl)ccc2NC1=S [Example 35, (3R)-7-chloro-3-isopropyl-5-phenyl-1,3-dihydro-1,4-benzodiazepine-2-thione] | 0.521 | 
CC1N=C(c2ccccc2)c2cc([N+](=O)[O-])ccc2NC1=S (stereo not shown) [Example 12, 3-methyl-7-nitro-5-phenyl-1,3-dihydro-1,4-benzodiazepine-2-thione] | 0.732 | 
COc1ccc2c(c1)C(c1ccccc1)=N[C@@H](C(C)C)C(=S)N2 [Example 40, (3S)-3-isopropyl-7-methoxy-5-phenyl-1,3-dihydro-1,4-benzodiazepine-2-thione] | 0.559 | 
FC(F)(F)C[C@@H]1N=C(c2ccccc2)c2cc(Cl)ccc2NC1=S [Example 8, (3S)-7-chloro-5-phenyl-3-(2,2,2-trifluoroethyl)-1,3-dihydro-1,4-benzodiazepine-2-thione] | 0.238 | 
S=C1Nc2ccccc2C(c2ccccc2)=NC1Cc1ccc(Cl)c(Cl)c1 (stereo not shown) [Example 28, 3-[(3,4-Dichlorophenyl)methyl]-5-phenyl-1,3-dihydro-1,4-benzodiazepine-2-thione] | 1.67 | 
CCC[C@@H]1N=C(c2ccccc2)c2cc(Cl)ccc2NC1=S [Example 7, (3S)-7-chloro-5-phenyl-3-propyl-1,3-dihydro-1,4-benzodiazepine-2-thione] | 0.187 | 
CC(C)[C@@H]1N=C(c2ccccc2)c2cc(OC(F)(F)F)ccc2NC1=S [Example 25, (3S)-3-isopropyl-5-phenyl-7-(trifluoromethoxy)-1,3-dihydro-1,4-benzodiazepine-2-thione] | 0.232 | 
S=C1Nc2ccc(Cl)cc2C(c2ccccc2)=NC1c1ccccc1 (stereo not shown) [Example 31, 7-chloro-3,5-diphenyl-1,3-dihydro-1,4-benzodiazepine-2-thione] | 0.799 | 

Compound | IC50 [µM] | activity at M1 receptor
CSCC[C@H]1N=C(c2ccccc2)c2cc(Cl)ccc2NC1=S [Example 9, (3R)-7-chloro-3-(2-methylsulfanylethyl)-5-phenyl-1,3-dihydro-1,4-benzodiazepine-2-thione] | 0.504 | 
CCC1N=C(c2ccccc2F)c2cc(N)ccc2NC1=S (stereo not shown) [Example 37, 7-amino-3-ethyl-5-(2-fluorophenyl)-1,3-dihydro-1,4-benzodiazepine-2-thione] | 6.06 | 
Cc1ccc2c(c1)C(c1ccccc1F)=N[C@@H](C(C)C)C(=S)N2 [Example 13, (3S)-5-(2-fluorophenyl)-3-isopropyl-7-methyl-1,3-dihydro-1,4-benzodiazepine-2-thione] | 0.062 | 
CC(C)C[C@@H]1N=C(c2ccccc2F)c2cc(Cl)ccc2NC1=S [Example 27, (3S)-7-Chloro-5-(2-fluorophenyl)-3-isobutyl-1,3-dihydro-1,4-benzodiazepine-2-thione] | 0.641 | 
Fc1ccccc1C1=N[C@@H](c2ccccc2)C(=S)Nc2ccc(Cl)cc21 [Example 29, (3S)-7-Chloro-5-(2-fluorophenyl)-3-phenyl-1,3-dihydro-1,4-benzodiazepine-2-thione] | 1.47 | 
S=C1Nc2ccc(Cl)cc2C(c2ccccc2)=N[C@H]1C1CC1 [Example 24, (3S)-7-chloro-3-cyclopropyl-5-phenyl-1,3-dihydro-1,4-benzodiazepine-2-thione] | 0.165 | 
FC(F)(F)c1ccc2c(c1)C(C1CCCCC1)=NCC(=S)N2 [Example 20, 5-cyclohexyl-7-(trifluoromethyl)-1,3-dihydro-1,4-benzodiazepine-2-thione] | 1.95 | 
CC[C@@H]1N=C(c2ccccc2)c2cc(Cl)ccc2NC1=S [Example 4, (3S)-7-chloro-3-ethyl-5-phenyl-1,3-dihydro-1,4-benzodiazepine-2-thione] | 0.103 | 
CC(C)[C@@H]1N=C(c2ccccn2)c2cc(Br)ccc2NC1=S [Example 2, (3S)-7-bromo-3-propan-2-yl-5-pyridin-2-yl-1,3-dihydro-1,4-benzodiazepine-2-thione] | 0.289 | 
CC(C)[C@H]1N=C(c2ccccc2F)c2cc(Cl)ccc2NC1=S [Example 34, (3R)-7-chloro-5-(2-fluorophenyl)-3-isopropyl-1,3-dihydro-1,4-benzodiazepine-2-thione] | 0.42 | 
CC(C)C1N=C(c2ccccc2)c2cc(Cl)ccc2NC1=S (stereo not shown) [Example 15, 7-chloro-3-isopropyl-5-phenyl-1,3-dihydro-1,4-benzodiazepine-2-thione] | 0.064 | 
CC(C)[C@@H]1N=C(c2ccccc2)c2cc(C(F)(F)F)ccc2NC1=S [Example 18, (3S)-3-isopropyl-5-phenyl-7-(trifluoromethyl)-1,3-dihydro-1,4-benzodiazepine-2-thione] | 0.071 | 
CCC1CN(c2ccccc2)c2cc(Cl)ccc2NC1=S (stereo not shown) [Example 42] | 0.05 | 
S=C1Nc2ccc(Cl)cc2C(c2ccccc2)=N[C@@H]1Cc1ccccc1 (single isomer, unassigned) [Example 21] | 1.14 | 
CCC[C@]1(C)N=C(c2ccccc2)c2cc(Cl)ccc2NC1=S [Example 6, (3S)-7-chloro-3-methyl-5-phenyl-3-propyl-1H-1,4-benzodiazepine-2-thione] | 0.104 | 
CSCC[C@@H]1N=C(c2ccccc2)c2cc(Cl)ccc2NC1=S [Example 33, (3S)-7-chloro-3-(2-methylsulfanylethyl)-5-phenyl-1,3-dihydro-1,4-benzodiazepine-2-thione] | 1.2 | 
Fc1ccccc1C1=N[C@H](C(F)(F)F)C(=S)Nc2ccc(Cl)cc21 [Example 11, (3R)-7-chloro-5-(2-fluorophenyl)-3-(trifluoromethyl)-1,3-dihydro-1,4-benzodiazepine-2-thione] | 0.622 | 
CC(C)[C@@H]1N=C(c2ccccc2)c2cc(Cl)ccc2NC1=S [Example 16, (3S)-7-chloro-3-isopropyl-5-phenyl-1,3-dihydro-1,4-benzodiazepine-2-thione] | 0.07 | 
S=C1Nc2ccc(Cl)cc2C(c2ccccc2)=N[C@H]1Cc1ccccc1 (single isomer, unassigned) [Example 30] | 0.251 | 

Same assay, conditions: CHO human M1, with EC20 of acetylcholine, FLIPR; read-out: IC50 value hM1 (converted)

Compound | IC50 [µM]
CC(C)[C@@H]1N=C(C2CCCCC2)c2cc(Cl)ccc2NC1=S [Example 39, (3S)-7-chloro-5-cyclohexyl-3-isopropyl-1,3-dihydro-1,4-benzodiazepine-2-thione] | 0.414
CC(C)[C@@H]1N=C(c2ccc(F)cc2)c2cc(OC(F)(F)F)ccc2NC1=S [Example 1, (3S)-5-(4-fluorophenyl)-3-isopropyl-7-(trifluoromethoxy)-1,3-dihydro-1,4-benzodiazepine-2-thione] | 0.312
